From DBAASP
In brackets after ≈: the same amount, converted by molar mass. One block for each compound: values may come before it.

Assays:
Assay in all cases: ≥ marks a high value that may be exact or a test limit, other limits are often not marked, values filed in µg/mL are converted to µM
[1] = test system: Streptococcus sanguinis ATCC 10556
[2] = test system: Streptococcus mutans UA159
[3] = test system: Streptococcus sobrinus ATCC 6715
[4] = test system: Candida glabrata ATCC 15126
Candida tropicalis = test system: Candida tropicalis
Candida glabrata = test system: Candida glabrata
[5] = test system: Candida tropicalis ATCC 13803
Candida albicans SC5314 = test system: Candida albicans SC5314
Candida albicans = test system: Candida albicans
Candida krusei ATCC 6258 = test system: Candida krusei ATCC 6258
Candida parapsilosis = test system: Candida parapsilosis
[6] = test system: Candida parapsilosis ATCC 22019
Pseudomonas aeruginosa = test system: Pseudomonas aeruginosa
Bacillus subtilis = test system: Bacillus subtilis
Escherichia coli HB101 = test system: Escherichia coli HB101
Salmonella typhimurium = test system: Salmonella typhimurium
[7] = test system: Escherichia coli ATCC 2592
[8] = test system: Pseudomonas aeruginosa ATCC 9027
[9] = test system: Staphylococcus aureus ATCC 6538
[10] = test system: Micrococcus luteus ATCC 9341
[11] = test system: Staphylococcus aureus 1550
[12] = test system: Candida albicans ATCC 36232
Candida glabrata 090902 = test system: Candida glabrata 090902
[13] = test system: Nocardia asteroides 201118
[14] = test system: Enterococcus faecalis 981
[15] = test system: Klebsiella pneumoniae 08040724
[16] = test system: Escherichia coli ATCC 25922
[17] = test system: Staphylococcus aureus ATCC 25923
[18] = test system: Pseudomonas aeruginosa CGMCC 1.50

Compound: CC(C)[C@H](NC(=O)[C@H](CCCCN)NC(=O)[C@H](CCCCN)NC(=O)[C@H](C)NC(=O)[C@H](CCCCN)NC(=O)[C@H](CCCCN)NC(=O)[C@H](Cc1ccccc1)NC(=O)[C@H](Cc1ccccc1)NC(=O)[C@H](CCCCN)NC(=O)[C@H](CCCCN)NC(=O)[C@H](Cc1c[nH]c2ccccc12)NC(=O)CN)C(=O)N[C@@H](Cc1c[nH]c2ccccc12)C(=O)N[C@@H](CCCCN)C(=O)O [GWKKFFKKAKKVWK]
- MIC [1]: ≥ 141 µM
- MIC [2]: ≥ 70.7 µM
- MIC [3]: ≥ 141 µM

Compound: CC(C)C[C@H](NC(=O)[C@H](CC(C)C)NC(=O)[C@H](Cc1ccc(O)cc1)NC(=O)[C@H](CCCCN)NC(=O)[C@@H](N)CS)C(=O)N[C@@H](CCCCN)C(=O)N[C@@H](Cc1c[nH]c2ccccc12)C(=O)N[C@@H](CCCN=C(N)N)C(=O)O [CKYLLKWR]
- MIC [4]: 22.5 µM (≈ 25 µg/mL)
- MIC (Candida tropicalis): 11.3 µM (≈ 12.5 µg/mL)
- MIC (Candida glabrata): ≥ 45.1 µM
- MIC [5]: 11.3 µM (≈ 12.5 µg/mL)
- MIC (Candida albicans SC5314): 22.5 µM (≈ 25 µg/mL)
- MIC (Candida albicans): 63.7 µM (≈ 70.7 µg/mL)
- MIC (Candida krusei ATCC 6258): 22.5 µM (≈ 25 µg/mL)
- MIC (Candida parapsilosis): 31.9 µM (≈ 35.4 µg/mL)
- MIC [6]: ≥ 45.1 µM

Compound: CC(C)[C@H](NC(=O)[C@H](CCCCN)NC(=O)[C@H](CCCCN)NC(=O)[C@H](CCCCN)NC(=O)[C@H](CCCCN)NC(=O)[C@H](CCCCN)NC(=O)[C@@H](NC(=O)[C@@H](NC(=O)[C@@H](N)Cc1ccccc1)C(C)C)C(C)C)C(=O)N[C@@H](Cc1ccccc1)C(=O)O [FVVKKKKKVF]
- MIC [7]: ≥ 80 µM
- MIC [8]: > 80 µM
- MIC [9]: > 80 µM
- MIC [10]: ≥ 80 µM
- MIC [11]: ≥ 80 µM
- MIC [12]: ≥ 80 µM

More lines, now with the values ahead:

- MIC (Pseudomonas aeruginosa): 7.35 µM (≈ 18.9 µg/mL)
- MIC (Bacillus subtilis): 20.8 µM (≈ 53.6 µg/mL)
- MIC (Escherichia coli HB101): 2.6 µM (≈ 6.7 µg/mL)
- MIC (Salmonella typhimurium): 2.6 µM (≈ 6.7 µg/mL)
Compound: CC[C@H](C)[C@H](NC(=O)[C@@H](NC(=O)[C@@H]1CCCN1C(=O)[C@@H](NC(=O)[C@@H]1CCCN1C(=O)[C@H](CCCCN)NC(=O)[C@H](CCCCN)NC(=O)[C@H](CO)NC(=O)CN)C(C)C)[C@@H](C)CC)C(=O)N[C@@H](Cc1ccc(O)cc1)C(=O)N[C@H]1CSSC[C@@H](C(=O)N[C@@H](CCC(N)=O)C(=O)N[C@@H](CCCN=C(N)N)C(=O)N[C@@H](CCSC)C(=O)O)NC(=O)[C@H](CCCCN)NC(=O)CNC(=O)[C@H]([C@@H](C)O)NC(=O)[C@H](C)NC(=O)[C@H](C)NC(=O)[C@H](CCCN=C(N)N)NC(=O)[C@H](CCCN=C(N)N)NC(=O)[C@H](CC(N)=O)NC1=O [GSKKPVPIIYCNRRAATGKCQRM]

- MIC (Candida glabrata 090902): ≥ 37.5 µM
- MIC [13]: 1.2 µM (≈ 3.09 µg/mL)
- MIC [14]: 9.4 µM (≈ 24.2 µg/mL)
- MIC [15]: ≥ 75 µM
- MIC [16]: 37.5 µM (≈ 96.6 µg/mL)
- MIC [17]: 4.7 µM (≈ 12.1 µg/mL)
- MIC [18]: ≥ 75 µM
Compound: CC[C@H](C)[C@H](NC(=O)[C@H](C)NC(=O)[C@@H]1CCCN1C(=O)[C@H](CC(C)C)NC(=O)[C@@H](N)Cc1ccccc1)C(=O)N[C@H](C(=O)NCC(=O)N[C@@H](CCSC)C(=O)N[C@@H](C)C(=O)N[C@@H](C)C(=O)N[C@@H](CCCCN)C(=O)N[C@H](C(=O)N[C@@H](CC(C)C)C(=O)N1CCC[C@H]1C(=O)N[C@@H](C)C(=O)N[C@@H](Cc1ccccc1)C(=O)N[C@@H](CC(C)C)C(=O)N[C@H]1CSSC[C@@H](C(=O)O)NC(=O)[C@H](CCCCN)NC(=O)[C@H](CCCCN)NC(=O)[C@H]([C@@H](C)O)NC(=O)[C@H]([C@@H](C)CC)NC(=O)[C@H](CCCCN)NC1=O)C(C)C)[C@@H](C)CC [FLPAIIGMAAKVLPAFLCKITKKC]
